Tested on: iPSC-derived cortical neurons
Test: RNA sequencing, differential gene expression: Bupropion-treated vs vehicle-only induced neurons (Tables 5, 6)
Format: cell-based, human
Protocol: iPSC differentiation into neurons-iPSCs were seeded at a density of 3×10^6 cells/well on a hESC-qualified Matrigel pre-coated 6-well plate and incubated at 37° C., 5% CO2 overnight. Differentiation was initiated the following day (day 0) after verifying that 100% confluency was reached. Differentiation media was added daily according to the following order: […]7 (day 15 onward) similar to a previously published protocol developed by for rapid differentiation to cortical neurons. The components of the described media, Q1-7, are provided in Appendix 1. Cells were assessed for differentiation efficiency and cell death on a daily basis. On day 9, differentiated neurons were re-plated on either 96-well plates (destined for staining) or 12-well plates (destined for RNA extraction) that were coated with 15 μg/mL Poly-ornithine diluted in PBS (overnight incubation at 37° C.), followed by 1 μg/mL Laminin and 2 μg/mL Fibronectin diluted in PBS (overnight incubation at 37° C.): Neurons were first rinsed with pre-warmed PBS and 1 ml/well of Accutase was added for 35 minutes at 37° C., 5% CO2. DNAse1 (0.5 mg/mL) was then added for 10 additional minutes. 3 ml of pre-warmed Neurobasal media was added to each well and neurons were gently collected using a 5 ml […]. Wells were then verified for the presence of any remaining neurons. Neurons were spun down and resuspended in Q6 media. Neurons were seeded at a density of 150,000 cells/cm^2 placed back at 37° C. Following four hours of incubation, media was changed to Q6 media (150 μl per 96-well and 1 ml per 12-well). […] RNA-sequencing samples were aligned to the GRCh38 reference genome using STAR aligner. TMM normalization of RNA read counts and differential gene expression analysis were carried out using edgeR. […] Cells were reprogrammed into iPSCs, following which iPSCs were differentiated into frontal cortical neuronal cells (see Materials and Methods). […] Another dose of drug or control was also administered at day 32. At day 35 neurons were either fixed for histological examination or isolated for RNA extraction.

[1] = 10 μM Bupropion vs vehicle, responder-derived neurons, day 35, PValue NS (not significant)
[2] = Bupropion vs vehicle only, p<0.05, over 60,000 genes probed

CC(NC(C)(C)C)C(=O)c1cccc(Cl)c1 (stereo not drawn) [Bupropion, 3-Chloro-N-tert-butyl-β-keto-α-methylphenethylamin]
logFC NFKBID expression (10 μM Bupropion vs vehicle, responder-derived neurons, day 35, PValue 0.003685448): −0.6042 | logFC TCF7 expression (10 μM Bupropion vs vehicle, responder-derived neurons, day 35, PValue 0.005666754): −0.3904 | logFC DUSP23 expression (10 μM Bupropion vs vehicle, responder-derived neurons, day 35, PValue 0.006214757): −0.4927 | logFC TENT5B expression (10 μM Bupropion vs vehicle, responder-derived neurons, day 35, PValue 0.008132328): −0.8021 | logFC UGT3A2 expression (10 μM Bupropion vs vehicle, responder-derived neurons, day 35, PValue 0.009321582): −0.4889 | logFC CCDC51 expression (10 μM Bupropion vs vehicle, responder-derived neurons, day 35, PValue 0.012079592): −0.2443 | logFC CTNS expression (10 μM Bupropion vs vehicle, responder-derived neurons, day 35, PValue 0.013463621): −0.2404 | logFC PYCARD expression (10 μM Bupropion vs vehicle, responder-derived neurons, day 35, PValue 0.013981248): −1.05 | logFC ABHD4 expression (10 μM Bupropion vs vehicle, responder-derived neurons, day 35, PValue 0.014582448): −0.3111 | logFC PTPRQ expression (10 μM Bupropion vs vehicle, responder-derived neurons, day 35, PValue 0.018081564): 0.89 | logFC SMPDL3B expression (10 μM Bupropion vs vehicle, responder-derived neurons, day 35, PValue 0.022812161): −0.7488 | logFC KLC3 expression (10 μM Bupropion vs vehicle, responder-derived neurons, day 35, PValue 0.023692875): −0.8533 | logFC PNKP expression (10 μM Bupropion vs vehicle, responder-derived neurons, day 35, PValue 0.024437941): −0.2172 | logFC SPNS1 expression (10 μM Bupropion vs vehicle, responder-derived neurons, day 35, PValue 0.024838304): −0.7022 | logFC FAM117A expression (10 μM Bupropion vs vehicle, responder-derived neurons, day 35, PValue 0.025868873): −0.2485 | logFC PPL expression (10 μM Bupropion vs vehicle, responder-derived neurons, day 35, PValue 0.026069274): −0.3932 | logFC ZNF425 expression (10 μM Bupropion vs vehicle, responder-derived neurons, day 35, PValue 0.026180649): −0.2317 | logFC MT2A expression (Table 6, downregulated) (10 μM Bupropion vs vehicle, responder-derived neurons, day 35, PValue 0.02632325): −0.7705 | logFC COX16 expression (10 μM Bupropion vs vehicle, responder-derived neurons, day 35, PValue 0.026606667): 0.3985 | logFC RSAD2 expression (10 μM Bupropion vs vehicle, responder-derived neurons, day 35, PValue 0.026606947): 0.9753 | logFC PPP1R1B expression (10 μM Bupropion vs vehicle, responder-derived neurons, day 35, PValue 0.026677416): −0.677 | logFC LLPH expression (10 μM Bupropion vs vehicle, responder-derived neurons, day 35, PValue 0.026874183): 0.1758 | logFC CKS1B expression (10 μM Bupropion vs vehicle, responder-derived neurons, day 35, PValue 0.02807621): −0.3153 | logFC LGR6 expression (10 μM Bupropion vs vehicle, responder-derived neurons, day 35, PValue 0.028853165): −0.6091 | logFC TSTD2 expression (10 μM Bupropion vs vehicle, responder-derived neurons, day 35, PValue 0.028984217): 0.1932 | logFC HS3ST5 expression (10 μM Bupropion vs vehicle, responder-derived neurons, day 35, PValue 0.028999172): 0.5251 | logFC ART5 expression (10 μM Bupropion vs vehicle, responder-derived neurons, day 35, PValue 0.030155652): −0.5082 | logFC ADRA2B expression (10 μM Bupropion vs vehicle, responder-derived neurons, day 35, PValue 0.031233579): −0.7451 | logFC ZNF394 expression (10 μM Bupropion vs vehicle, responder-derived neurons, day 35, PValue 0.031885505): −0.1977 | logFC CHMP4A expression (10 μM Bupropion vs vehicle, responder-derived neurons, day 35, PValue 0.031923817): 0.3939 | logFC ETV5 expression (10 μM Bupropion vs vehicle, responder-derived neurons, day 35, PValue 0.031953602): −0.2432 | logFC VWA2 expression (10 μM Bupropion vs vehicle, responder-derived neurons, day 35, PValue 0.033110679): −0.8249 | logFC CDC42BPG expression (10 μM Bupropion vs vehicle, responder-derived neurons, day 35, PValue 0.034205433): −0.6386 | logFC PSD3 expression (10 μM Bupropion vs vehicle, responder-derived neurons, day 35, PValue 0.034363174): 0.2947 | logFC TRAF3IP2 expression (10 μM Bupropion vs vehicle, responder-derived neurons, day 35, PValue 0.035638975): −0.342 | logFC TXNRD2 expression (10 μM Bupropion vs vehicle, responder-derived neurons, day 35, PValue 0.036129679): −0.3971 | logFC RAB43 expression (10 μM Bupropion vs vehicle, responder-derived neurons, day 35, PValue 0.036339642): −0.7667 | logFC APOE expression (10 μM Bupropion vs vehicle, responder-derived neurons, day 35, PValue 0.036466348): −0.4756 | logFC TYW1B expression (10 μM Bupropion vs vehicle, responder-derived neurons, day 35, PValue 0.037441749): −0.2836 | logFC ARL17B expression (10 μM Bupropion vs vehicle, responder-derived neurons, day 35, PValue 0.037774775): 0.4487 | logFC TOM1 expression (10 μM Bupropion vs vehicle, responder-derived neurons, day 35, PValue 0.039328923): −0.2212 | logFC FGF1 expression (10 μM Bupropion vs vehicle, responder-derived neurons, day 35, PValue 0.040753088): 0.7441 | logFC GPR89A expression (10 μM Bupropion vs vehicle, responder-derived neurons, day 35, PValue 0.040776978): −0.3135 | logFC HAUS8 expression (10 μM Bupropion vs vehicle, responder-derived neurons, day 35, PValue 0.040813288): −0.3377 | logFC TNNI3 expression (10 μM Bupropion vs vehicle, responder-derived neurons, day 35, PValue 0.04085042): −0.4473 | logFC INMT expression (10 μM Bupropion vs vehicle, responder-derived neurons, day 35, PValue 0.04107423): 0.8156 | logFC LHFPL3 expression (10 μM Bupropion vs vehicle, responder-derived neurons, day 35, PValue 0.041076888): 0.8454 | logFC TJP3 expression (10 μM Bupropion vs vehicle, responder-derived neurons, day 35, PValue 0.041258334): −0.4285 | logFC RNASEK expression (10 μM Bupropion vs vehicle, responder-derived neurons, day 35, PValue 0.041364592): −0.4148 | logFC MACROD1 expression (10 μM Bupropion vs vehicle, responder-derived neurons, day 35, PValue 0.041485982): −0.4078 | logFC DDX55 expression (10 μM Bupropion vs vehicle, responder-derived neurons, day 35, PValue 0.041521555): −0.177 | logFC MAP4K1 expression (10 μM Bupropion vs vehicle, responder-derived neurons, day 35, PValue 0.041777603): −0.4541 | logFC MADCAM1 expression (10 μM Bupropion vs vehicle, responder-derived neurons, day 35, PValue 0.042721026): −0.6346 | logFC NMRK2 expression (10 μM Bupropion vs vehicle, responder-derived neurons, day 35, PValue 0.042934722): −0.915 | logFC RARRES2 expression (10 μM Bupropion vs vehicle, responder-derived neurons, day 35, PValue 0.044126316): −0.5614 | logFC GABRD expression (10 μM Bupropion vs vehicle, responder-derived neurons, day 35, PValue 0.044432972): −0.661 | logFC SCN9A expression (10 μM Bupropion vs vehicle, responder-derived neurons, day 35, PValue 0.044462789): 0.653 | logFC CTSD expression (10 μM Bupropion vs vehicle, responder-derived neurons, day 35, PValue 0.044610728): −0.3042 | logFC MINDY3 expression (10 μM Bupropion vs vehicle, responder-derived neurons, day 35, PValue 0.044932218): 0.1907 | logFC FBXO2 expression (10 μM Bupropion vs vehicle, responder-derived neurons, day 35, PValue 0.044969345): −0.5297 | logFC MT1X expression (10 μM Bupropion vs vehicle, responder-derived neurons, day 35, PValue 0.045842417): −0.6858 | logFC LRRC2 expression (10 μM Bupropion vs vehicle, responder-derived neurons, day 35, PValue 0.045853063): −0.8234 | logFC ZFP69B expression (10 μM Bupropion vs vehicle, responder-derived neurons, day 35, PValue 0.046824204): 0.2565 | logFC SLC45A2 expression (10 μM Bupropion vs vehicle, responder-derived neurons, day 35, PValue 0.046871029): −1.05 | logFC KLHL21 expression (10 μM Bupropion vs vehicle, responder-derived neurons, day 35, PValue 0.047318696): −0.2723 | logFC RILPL1 expression (10 μM Bupropion vs vehicle, responder-derived neurons, day 35, PValue 0.047560251): −0.1692 | logFC PSMB10 expression (10 μM Bupropion vs vehicle, responder-derived neurons, day 35, PValue 0.048107795): −0.5669 | logFC LHPP expression (10 μM Bupropion vs vehicle, responder-derived neurons, day 35, PValue 0.048445403): −0.2669 | logFC RABEP2 expression (10 μM Bupropion vs vehicle, responder-derived neurons, day 35, PValue 0.049224822): −0.2496 | logFC LARGE2 expression (10 μM Bupropion vs vehicle, responder-derived neurons, day 35, PValue 0.049340025): −0.566 | logFC ZNF221 expression (10 μM Bupropion vs vehicle, responder-derived neurons, day 35, PValue 0.049596306): 0.3254 | logFC LIN37 expression (10 μM Bupropion vs vehicle, responder-derived neurons, day 35, PValue 3.06E−05): −0.8411 | logFC APOL1 expression [1]: −0.7489 | logFC ATP8B4 expression [1]: −0.6945 | logFC CA3 expression [1]: 0.6571 | logFC CDK6 expression [1]: 0.2579 | logFC CORT expression [1]: 0.6431 | logFC CXCL11 expression (Table 6, downregulated) [1]: −1.176 | logFC ESR2 expression [1]: 0.4833 | logFC GOLGA8H expression [1]: −0.565 | logFC GRPR expression [1]: 0.6268 | logFC MT1E expression [1]: 2.123 | logFC MT2A expression (Table 5, upregulated) [1]: 1.378 | logFC PITX2 expression [1]: 0.9302 | logFC SEPTIN5 expression [1]: 0.5877 | number of genes significantly downregulated in responders after treatment, but not in non-responders [2]: 57 genes | number of genes significantly upregulated in responders after treatment, but not in non-responders [2]: 18 genes
